Experiments:
[1] = biological target: T1, recombinant mouse Lp-PLA2 (Mus musculus, UniProt Q60963); details: previously shown; cited from earlier work
T1 sequence (Q60963 22-440): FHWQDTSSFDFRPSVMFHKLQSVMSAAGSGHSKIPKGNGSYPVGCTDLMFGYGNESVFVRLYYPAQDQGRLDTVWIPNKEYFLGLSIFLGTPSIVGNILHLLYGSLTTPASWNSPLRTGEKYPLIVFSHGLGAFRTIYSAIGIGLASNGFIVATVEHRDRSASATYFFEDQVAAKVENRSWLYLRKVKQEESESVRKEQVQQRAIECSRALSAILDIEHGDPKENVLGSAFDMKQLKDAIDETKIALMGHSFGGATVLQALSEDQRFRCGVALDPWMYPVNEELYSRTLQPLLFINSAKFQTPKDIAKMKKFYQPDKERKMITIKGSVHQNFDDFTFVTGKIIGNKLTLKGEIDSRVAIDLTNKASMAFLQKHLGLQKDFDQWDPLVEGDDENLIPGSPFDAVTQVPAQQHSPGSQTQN

[2] = system: other ~40 serine hydrolases detected in PC3 cells; test: ABPP-SILAC of inhibitor-treated PC3 cells in situ, other serine hydrolases; assay type: cell-based, human; details: 100 nM, 4 hours
[3] = system: serine hydrolases detected in mouse brain; assay type: biochemical; details: FP-Rh, concentrations up to 10 µM
[4] = system: diabetic and hypercholesterolemic swine; details: cited from earlier work
[5] = system: human patients with coronary heart disease; details: cited from earlier work
ApoE-deficient mice = details: cited from earlier work
[6] = system: other detected serine hydrolase activities in the PC3 cell proteome; test: competitive ABPP with FP-Rh in PC3 cell proteome, selectivity; assay type: biochemical, human; details: FP-Rh probe

| SMILES | inhibition of mouse Lp-PLA2 [1] | effect on other ~40 serine hydrolases in situ [2] | cross-reactivity with other serine hydrolases [3] | atherosclerotic plaque formation [4] | plasma Lp-PLA2 activity [4] | atherosclerotic plaque formation [5] | plasma Lp-PLA2 activity [5] | atherosclerotic plaque formation (ApoE-deficient mice) | plasma Lp-PLA2 activity (ApoE-deficient mice) | inhibition of other detected serine hydrolase activities [6] |
| --- | --- | --- | --- | --- | --- | --- | --- | --- | --- | --- |
| CCCCCCCCCCC[C@@H](C[C@@H]1OC(=O)[C@H]1CCCCCC)OC(=O)[C@H](CC(C)C)NC=O [THL, tetrahydrolipstatin] | inhibited |  |  |  |  |  |  |  |  |  |
| CCN(CC)CCN(Cc1ccc(-c2ccc(C(F)(F)F)cc2)cc1)C(=O)Cn1c(SCc2ccc(F)cc2)nc(=O)c2c1CCC2 [darapladib] |  | not affecting any | neither darapladib nor JMN4 cross-reacted | significantly decrease | significantly decrease | significantly decrease | significantly decrease | significantly decrease | significantly decrease | not inhibited |
